{
  "source": "paper PMC9186362",
  "about": "“Design and biological evaluation of substituted 5,7-dihydro-6H-indolo[2,3-c]quinolin-6-one as novel selective Haspin inhibitors” (Journal of Enzyme Inhibition and Medicinal Chemistry, 2022)",
  "test_in_all_cases": "SelectScreen ZLYTE",
  "assay_type_in_all_cases": "biochemical",
  "details_in_all_cases": "ATP Km, read-out: Percentage of inhibition",
  "key": {"ABL1 F317L": {"target": "T1, ABL1 F317L (Homo sapiens, UniProt P00519, F317L)", "T1 construct": "purchased Life Technologies (SelectScreen)", "summary_of_the_method": "(§1)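 Here 1 μM of inhibitor is profiled against a large kinase collection, and the extent of enzyme inhibition is stated as a percentage.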"}, "ABL1 G250E": {"target": "T2, ABL1 G250E (Homo sapiens, UniProt P00519, G250E)", "T2 construct": "purchased Life Technologies (SelectScreen Whole Panel service)", "summary_of_the_method": "as §1"}, "AKT1 (PKB alpha)": {"target": "AKT1 (PKB alpha) (Homo sapiens, UniProt P31749)", "summary_of_the_method": "as §1"}, "AURKB (Aurora B)": {"target": "T3, AURKB (Aurora B) (Homo sapiens, UniProt Q96GD4)", "T3 construct": "purchased Life Technologies", "summary_of_the_method": "as §1"}, "CDC42 BPB (MRCKB)": {"target": "T4, CDC42 BPB (MRCKB) (Homo sapiens, UniProt Q9Y5S2)", "T4 construct": "purchased Life Technologies (SelectScreen Whole Panel service)", "summary_of_the_method": "as §1"}, "CSNK1A1L": {"target": "CSNK1A1L (Homo sapiens, UniProt Q8N752)", "sequence (Q8N752 whole entry)": "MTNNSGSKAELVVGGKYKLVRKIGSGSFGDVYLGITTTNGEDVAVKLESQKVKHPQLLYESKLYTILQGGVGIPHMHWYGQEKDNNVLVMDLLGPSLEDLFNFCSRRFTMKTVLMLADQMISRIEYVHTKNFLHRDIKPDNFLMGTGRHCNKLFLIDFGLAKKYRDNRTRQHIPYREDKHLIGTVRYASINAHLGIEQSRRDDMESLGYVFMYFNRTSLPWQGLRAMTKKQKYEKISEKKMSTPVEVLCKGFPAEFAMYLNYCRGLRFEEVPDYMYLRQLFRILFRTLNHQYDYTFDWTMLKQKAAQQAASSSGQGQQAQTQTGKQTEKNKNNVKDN", "summary_of_the_method": "as §1"}, "CSNK1E (CK1 epsilon)": {"target": "T5, CSNK1E (CK1 epsilon) (Homo sapiens, UniProt P49674)", "T5 construct": "purchased Life Technologies (SelectScreen service)", "summary_of_the_method": "as §1"}, "DYRK3": {"target": "T6, DYRK3 (Homo sapiens, UniProt O43781)", "T6 construct": "purchased Life Technologies (SelectScreen service)", "summary_of_the_method": "as §1"}, "EGFR (ErbB1) G719C": {"target": "T7, EGFR (ErbB1) G719C (Homo sapiens, UniProt P00533, G719C)", "T7 construct": "purchased Life Technologies (SelectScreen)", "summary_of_the_method": "as §1"}, "EPHB1": {"target": "T8, EPHB1 (Homo sapiens, UniProt P54762)", "T8 construct": "purchased Life Technologies (SelectScreen Whole Panel)", "summary_of_the_method": "as §1"}, "EPHB2": {"target": "EPHB2 (Homo sapiens, UniProt P29323)", "summary_of_the_method": "as §1"}, "FYN": {"target": "T9, FYN (Homo sapiens, UniProt P06241)", "T9 construct": "purchased Life Technologies (SelectScreen Whole Panel)", "summary_of_the_method": "as §1"}, "HIPK3 (YAK1)": {"target": "T10, HIPK3 (YAK1) (Homo sapiens, UniProt Q9H422)", "T10 construct": "purchased Life Technologies", "summary_of_the_method": "as §1"}, "INSR": {"target": "INSR (Homo sapiens, UniProt P06213)", "summary_of_the_method": "as §1"}, "JAK2 JH1 JH2": {"target": "T11, JAK2 JH1 JH2 (Homo sapiens, UniProt O60674)", "T11 construct": "JAK2 JH1 JH2; purchased Life Technologies", "summary_of_the_method": "as §1"}, "JAK2 JH1 JH2 V617F": {"target": "T12, JAK2 JH1 JH2 V617F (Homo sapiens, UniProt O60674, V617F)", "T12 construct": "JAK2 JH1 JH2; purchased Life Technologies", "summary_of_the_method": "as §1"}, "JAK3": {"target": "T13, JAK3 (Homo sapiens, UniProt P52333)", "T13 construct": "purchased Life Technologies (SelectScreen service)", "summary_of_the_method": "as §1"}, "KDR (VEGFR2)": {"target": "KDR (VEGFR2) (Homo sapiens, UniProt P35968)", "summary_of_the_method": "as §1"}, "LYN B": {"target": "LYN B (Homo sapiens, UniProt P07948)", "summary_of_the_method": "as §1"}, "MARK1 (MARK)": {"target": "T14, MARK1 (MARK) (Homo sapiens, UniProt Q9P0L2)", "T14 construct": "purchased Life Technologies (SelectScreen)", "summary_of_the_method": "as §1"}, "MARK4": {"target": "T15, MARK4 (Homo sapiens, UniProt Q96L34)", "T15 construct": "purchased Life Technologies", "summary_of_the_method": "as §1"}, "MATK (HYL)": {"target": "T16, MATK (HYL) (Homo sapiens, UniProt P42679)", "T16 construct": "purchased Life Technologies (SelectScreen Whole Panel service)", "summary_of_the_method": "as §1"}, "MET (cMet)": {"target": "MET (cMet) (Homo sapiens, UniProt P08581)", "sequence (P08581 25-1390)": "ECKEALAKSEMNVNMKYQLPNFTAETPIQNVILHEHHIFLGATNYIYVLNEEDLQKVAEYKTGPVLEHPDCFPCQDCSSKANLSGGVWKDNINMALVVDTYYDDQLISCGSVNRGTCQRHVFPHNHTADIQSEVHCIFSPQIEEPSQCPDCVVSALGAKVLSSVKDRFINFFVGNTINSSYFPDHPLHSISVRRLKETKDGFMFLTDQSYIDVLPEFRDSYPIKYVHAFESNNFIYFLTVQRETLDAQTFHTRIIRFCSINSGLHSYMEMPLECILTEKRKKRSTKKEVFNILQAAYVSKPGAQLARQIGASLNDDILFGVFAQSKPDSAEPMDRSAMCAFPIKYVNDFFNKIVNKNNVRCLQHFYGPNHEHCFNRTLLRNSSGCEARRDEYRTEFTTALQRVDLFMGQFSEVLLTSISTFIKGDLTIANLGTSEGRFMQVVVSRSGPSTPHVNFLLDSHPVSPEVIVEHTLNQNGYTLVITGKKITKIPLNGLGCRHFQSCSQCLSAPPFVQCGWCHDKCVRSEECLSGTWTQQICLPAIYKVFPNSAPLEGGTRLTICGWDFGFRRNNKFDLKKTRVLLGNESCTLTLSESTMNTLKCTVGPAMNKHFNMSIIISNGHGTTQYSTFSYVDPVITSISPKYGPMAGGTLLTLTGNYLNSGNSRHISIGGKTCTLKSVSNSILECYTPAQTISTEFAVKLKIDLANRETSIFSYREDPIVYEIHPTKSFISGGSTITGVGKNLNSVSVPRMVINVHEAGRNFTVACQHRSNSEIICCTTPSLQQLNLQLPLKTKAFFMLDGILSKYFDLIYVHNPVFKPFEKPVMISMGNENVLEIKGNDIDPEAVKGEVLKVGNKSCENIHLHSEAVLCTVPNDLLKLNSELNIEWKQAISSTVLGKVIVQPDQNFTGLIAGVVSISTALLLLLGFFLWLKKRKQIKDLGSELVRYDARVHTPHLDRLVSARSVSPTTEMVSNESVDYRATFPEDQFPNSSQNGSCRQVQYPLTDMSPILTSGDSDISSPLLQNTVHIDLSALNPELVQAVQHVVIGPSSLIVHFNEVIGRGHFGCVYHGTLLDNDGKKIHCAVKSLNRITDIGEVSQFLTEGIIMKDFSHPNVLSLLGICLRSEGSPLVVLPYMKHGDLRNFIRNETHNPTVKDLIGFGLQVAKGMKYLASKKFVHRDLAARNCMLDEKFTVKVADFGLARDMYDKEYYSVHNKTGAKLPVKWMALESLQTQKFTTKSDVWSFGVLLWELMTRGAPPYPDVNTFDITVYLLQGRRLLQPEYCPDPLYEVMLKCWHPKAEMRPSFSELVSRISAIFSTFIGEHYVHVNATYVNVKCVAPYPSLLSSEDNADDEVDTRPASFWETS", "summary_of_the_method": "as §1"}, "MUSK": {"target": "T17, MUSK (Homo sapiens, UniProt O15146)", "T17 construct": "purchased Life Technologies (SelectScreen Whole Panel service)", "T17 sequence (O15146 24-869)": "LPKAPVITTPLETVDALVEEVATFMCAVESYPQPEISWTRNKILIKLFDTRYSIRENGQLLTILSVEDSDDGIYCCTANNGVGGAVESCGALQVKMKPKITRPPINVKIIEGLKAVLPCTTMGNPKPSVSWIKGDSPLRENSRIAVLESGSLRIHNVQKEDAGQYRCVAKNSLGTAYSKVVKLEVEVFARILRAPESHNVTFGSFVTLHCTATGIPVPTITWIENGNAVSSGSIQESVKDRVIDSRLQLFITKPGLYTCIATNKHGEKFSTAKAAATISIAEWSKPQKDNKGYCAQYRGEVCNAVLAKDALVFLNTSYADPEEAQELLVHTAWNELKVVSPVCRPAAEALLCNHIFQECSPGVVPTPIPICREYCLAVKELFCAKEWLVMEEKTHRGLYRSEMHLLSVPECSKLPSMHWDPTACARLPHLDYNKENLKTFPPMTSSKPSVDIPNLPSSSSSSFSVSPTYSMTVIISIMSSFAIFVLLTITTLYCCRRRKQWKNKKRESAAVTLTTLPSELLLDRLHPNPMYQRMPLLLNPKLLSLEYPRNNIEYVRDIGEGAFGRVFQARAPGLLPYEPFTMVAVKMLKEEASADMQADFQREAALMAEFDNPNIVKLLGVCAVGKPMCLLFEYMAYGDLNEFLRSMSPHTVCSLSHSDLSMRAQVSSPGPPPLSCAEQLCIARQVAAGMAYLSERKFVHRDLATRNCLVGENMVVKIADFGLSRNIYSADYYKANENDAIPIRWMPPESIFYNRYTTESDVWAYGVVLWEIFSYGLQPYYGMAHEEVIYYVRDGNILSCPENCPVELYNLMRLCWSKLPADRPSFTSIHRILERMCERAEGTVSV", "summary_of_the_method": "as §1"}, "NTRK1 (TRKA)": {"target": "NTRK1 (TRKA) (Homo sapiens, UniProt P04629)", "summary_of_the_method": "as §1"}, "NTRK3 (TRKC)": {"target": "T18, NTRK3 (TRKC) (Homo sapiens, UniProt Q16288)", "T18 construct": "purchased Life Technologies", "summary_of_the_method": "as §1"}, "PAK7 (KIAA1264)": {"target": "T19, PAK7 (KIAA1264) (Homo sapiens, UniProt Q9P286)", "T19 construct": "purchased Life Technologies (SelectScreen)", "summary_of_the_method": "as §1"}, "PIM3": {"target": "T20, PIM3 (Homo sapiens, UniProt Q86V86)", "T20 construct": "purchased Life Technologies", "summary_of_the_method": "as §1"}, "PRKCI (PKC iota)": {"target": "PRKCI (PKC iota) (Homo sapiens, UniProt P41743)", "summary_of_the_method": "as §1"}, "RET S891A": {"target": "T21, RET S891A (Homo sapiens, UniProt P07949, S891A)", "T21 construct": "purchased Life Technologies", "summary_of_the_method": "as §1"}, "RPS6KA5 (MSK1)": {"target": "T22, RPS6KA5 (MSK1) (Homo sapiens, UniProt O75582)", "T22 construct": "purchased Life Technologies", "T22 sequence (O75582 whole entry)": "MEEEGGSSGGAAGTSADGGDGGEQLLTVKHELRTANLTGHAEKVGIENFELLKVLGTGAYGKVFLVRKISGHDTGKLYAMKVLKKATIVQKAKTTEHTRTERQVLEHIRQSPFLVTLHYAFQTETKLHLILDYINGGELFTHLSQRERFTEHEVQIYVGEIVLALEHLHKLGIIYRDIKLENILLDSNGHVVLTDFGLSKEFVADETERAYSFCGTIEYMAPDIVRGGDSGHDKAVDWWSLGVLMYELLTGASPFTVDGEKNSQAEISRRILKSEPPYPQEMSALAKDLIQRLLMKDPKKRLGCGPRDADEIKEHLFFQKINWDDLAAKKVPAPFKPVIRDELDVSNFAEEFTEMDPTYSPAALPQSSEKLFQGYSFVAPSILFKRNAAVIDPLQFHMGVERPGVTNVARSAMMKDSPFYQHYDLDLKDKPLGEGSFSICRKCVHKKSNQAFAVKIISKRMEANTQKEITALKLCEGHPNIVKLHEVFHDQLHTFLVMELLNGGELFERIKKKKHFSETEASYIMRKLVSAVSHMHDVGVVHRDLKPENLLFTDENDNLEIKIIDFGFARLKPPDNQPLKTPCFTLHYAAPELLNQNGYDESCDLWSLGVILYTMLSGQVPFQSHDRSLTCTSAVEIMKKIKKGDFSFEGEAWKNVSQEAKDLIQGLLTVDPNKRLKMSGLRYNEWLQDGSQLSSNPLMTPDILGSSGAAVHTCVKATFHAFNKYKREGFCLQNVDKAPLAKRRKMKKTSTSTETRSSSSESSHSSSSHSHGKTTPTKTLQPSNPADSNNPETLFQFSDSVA", "summary_of_the_method": "as §1"}, "RPS6KA6 (RSK4)": {"target": "T23, RPS6KA6 (RSK4) (Homo sapiens, UniProt Q9UK32)", "T23 construct": "purchased Life Technologies", "T23 sequence (Q9UK32 whole entry)": "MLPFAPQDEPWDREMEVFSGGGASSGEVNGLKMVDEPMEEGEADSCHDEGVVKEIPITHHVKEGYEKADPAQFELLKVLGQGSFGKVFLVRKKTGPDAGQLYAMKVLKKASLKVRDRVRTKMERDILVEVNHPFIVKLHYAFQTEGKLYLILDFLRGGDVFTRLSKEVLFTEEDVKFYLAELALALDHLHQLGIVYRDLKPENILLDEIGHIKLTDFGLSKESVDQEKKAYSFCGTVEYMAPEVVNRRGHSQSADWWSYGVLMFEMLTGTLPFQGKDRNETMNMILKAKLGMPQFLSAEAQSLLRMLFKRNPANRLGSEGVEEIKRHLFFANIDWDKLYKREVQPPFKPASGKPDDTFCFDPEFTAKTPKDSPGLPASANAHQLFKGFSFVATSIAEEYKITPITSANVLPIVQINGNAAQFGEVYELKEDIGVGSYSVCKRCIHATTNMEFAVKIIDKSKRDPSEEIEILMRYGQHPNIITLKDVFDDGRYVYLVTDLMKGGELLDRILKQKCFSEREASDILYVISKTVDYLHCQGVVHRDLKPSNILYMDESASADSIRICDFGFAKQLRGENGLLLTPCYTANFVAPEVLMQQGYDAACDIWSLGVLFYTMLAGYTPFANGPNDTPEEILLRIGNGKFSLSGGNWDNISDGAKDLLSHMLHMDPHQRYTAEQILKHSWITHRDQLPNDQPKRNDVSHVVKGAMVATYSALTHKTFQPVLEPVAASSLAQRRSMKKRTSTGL", "summary_of_the_method": "as §1"}, "SGK (SGK1)": {"target": "T24, SGK (SGK1) (Homo sapiens, UniProt O00141)", "T24 construct": "purchased Life Technologies", "summary_of_the_method": "as §1"}, "STK22D (TSSK1)": {"target": "T25, STK22D (TSSK1) (Homo sapiens, UniProt Q9BXA7)", "T25 construct": "purchased Life Technologies (SelectScreen Whole Panel service)", "T25 sequence (Q9BXA7 whole entry)": "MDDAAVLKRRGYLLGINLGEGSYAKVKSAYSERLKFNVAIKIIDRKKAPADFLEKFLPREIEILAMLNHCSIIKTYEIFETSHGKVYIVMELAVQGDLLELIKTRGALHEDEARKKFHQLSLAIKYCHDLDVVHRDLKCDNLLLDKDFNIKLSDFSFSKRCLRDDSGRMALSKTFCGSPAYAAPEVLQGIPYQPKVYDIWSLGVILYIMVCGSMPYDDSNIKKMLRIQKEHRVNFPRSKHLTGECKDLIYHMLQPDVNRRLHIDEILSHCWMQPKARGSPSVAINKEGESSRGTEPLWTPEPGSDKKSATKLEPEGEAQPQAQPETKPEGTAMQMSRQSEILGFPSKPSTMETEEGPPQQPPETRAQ", "summary_of_the_method": "as §1"}, "STK23 (MSSK1)": {"target": "T26, STK23 (MSSK1) (Homo sapiens, UniProt Q9UPE1)", "T26 construct": "purchased Life Technologies", "T26 sequence (Q9UPE1 whole entry)": "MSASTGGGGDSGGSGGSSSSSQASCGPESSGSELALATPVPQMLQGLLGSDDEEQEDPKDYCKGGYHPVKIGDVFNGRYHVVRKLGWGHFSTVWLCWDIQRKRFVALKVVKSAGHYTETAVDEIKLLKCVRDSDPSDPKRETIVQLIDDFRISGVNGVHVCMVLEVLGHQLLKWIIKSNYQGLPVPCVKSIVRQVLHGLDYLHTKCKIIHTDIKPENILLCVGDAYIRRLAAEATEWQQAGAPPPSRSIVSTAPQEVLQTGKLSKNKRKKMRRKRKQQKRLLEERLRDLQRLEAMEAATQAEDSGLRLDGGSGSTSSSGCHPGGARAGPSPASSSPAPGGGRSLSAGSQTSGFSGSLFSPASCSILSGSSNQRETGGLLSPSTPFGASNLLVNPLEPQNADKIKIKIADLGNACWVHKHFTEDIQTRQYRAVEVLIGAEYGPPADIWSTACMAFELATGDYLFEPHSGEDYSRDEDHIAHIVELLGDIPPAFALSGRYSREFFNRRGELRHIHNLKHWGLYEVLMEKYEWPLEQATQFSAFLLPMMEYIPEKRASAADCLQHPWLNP", "summary_of_the_method": "as §1"}, "STK25 (YSK1)": {"target": "T27, STK25 (YSK1) (Homo sapiens, UniProt O00506)", "T27 construct": "purchased Life Technologies (SelectScreen Whole Panel service)", "summary_of_the_method": "as §1"}, "TAOK2 (TAO1)": {"target": "T28, TAOK2 (TAO1) (Homo sapiens, UniProt Q9UL54)", "T28 construct": "purchased Life Technologies", "summary_of_the_method": "as §1"}, "TYK2": {"target": "T29, TYK2 (Homo sapiens, UniProt P29597)", "T29 construct": "purchased Life Technologies (SelectScreen Whole Panel)", "summary_of_the_method": "as §1"}},
  "data": [
    {"smiles": "COc1ccc2[nH]c3c(=O)[nH]c4ccc(O)cc4c3c2c1", "note": "[Compound 55, 2-Hydroxy-10-methoxy-5,7-dihydro-6H-indolo[2,3-c]quinolin-6-one]", "values": [
      {"measurement": "inhibition at 1 µM", "setting": "ABL1 F317L", "value": 9, "unit": "%"},
      {"measurement": "inhibition at 1 µM", "setting": "ABL1 G250E", "value": 48, "unit": "%"},
      {"measurement": "inhibition at 1 µM", "setting": "AKT1 (PKB alpha)", "value": 6, "unit": "%"},
      {"measurement": "inhibition at 1 µM", "setting": "AURKB (Aurora B)", "value": 41, "unit": "%"},
      {"measurement": "inhibition at 1 µM", "setting": "CDC42 BPB (MRCKB)", "value": 10, "unit": "%"},
      {"measurement": "inhibition at 1 µM", "setting": "CSNK1A1L", "value": 62, "unit": "%"},
      {"measurement": "inhibition at 1 µM", "setting": "CSNK1E (CK1 epsilon)", "value": 73, "unit": "%"},
      {"measurement": "inhibition at 1 µM", "setting": "DYRK3", "value": 86, "unit": "%"},
      {"measurement": "inhibition at 1 µM", "setting": "EGFR (ErbB1) G719C", "value": 8, "unit": "%"},
      {"measurement": "inhibition at 1 µM", "setting": "EPHB1", "value": 49, "unit": "%"},
      {"measurement": "inhibition at 1 µM", "setting": "EPHB2", "value": 21, "unit": "%"},
      {"measurement": "inhibition at 1 µM", "setting": "FYN", "value": 49, "unit": "%"},
      {"measurement": "inhibition at 1 µM", "setting": "HIPK3 (YAK1)", "value": 35, "unit": "%"},
      {"measurement": "inhibition at 1 µM", "setting": "INSR", "value": 21, "unit": "%"},
      {"measurement": "inhibition at 1 µM", "setting": "JAK2 JH1 JH2", "value": 33, "unit": "%"},
      {"measurement": "inhibition at 1 µM", "setting": "JAK2 JH1 JH2 V617F", "value": 36, "unit": "%"},
      {"measurement": "inhibition at 1 µM", "setting": "JAK3", "value": 79, "unit": "%"},
      {"measurement": "inhibition at 1 µM", "setting": "KDR (VEGFR2)", "value": 67, "unit": "%"},
      {"measurement": "inhibition at 1 µM", "setting": "LYN B", "value": 67, "unit": "%"},
      {"measurement": "inhibition at 1 µM", "setting": "MARK1 (MARK)", "value": 9, "unit": "%"},
      {"measurement": "inhibition at 1 µM", "setting": "MARK4", "value": 31, "unit": "%"},
      {"measurement": "inhibition at 1 µM", "setting": "MATK (HYL)", "value": 11, "unit": "%"},
      {"measurement": "inhibition at 1 µM", "setting": "MET (cMet)", "value": 7, "unit": "%"},
      {"measurement": "inhibition at 1 µM", "setting": "MUSK", "value": 18, "unit": "%"},
      {"measurement": "inhibition at 1 µM", "setting": "NTRK1 (TRKA)", "value": 69, "unit": "%"},
      {"measurement": "inhibition at 1 µM", "setting": "NTRK3 (TRKC)", "value": 93, "unit": "%"},
      {"measurement": "inhibition at 1 µM", "setting": "PAK7 (KIAA1264)", "value": 8, "unit": "%"},
      {"measurement": "inhibition at 1 µM", "setting": "PIM3", "value": 33, "unit": "%"},
      {"measurement": "inhibition at 1 µM", "setting": "PRKCI (PKC iota)", "value": 6, "unit": "%"},
      {"measurement": "inhibition at 1 µM", "setting": "RET S891A", "value": 96, "unit": "%"},
      {"measurement": "inhibition at 1 µM", "setting": "RPS6KA5 (MSK1)", "value": 28, "unit": "%"},
      {"measurement": "inhibition at 1 µM", "setting": "RPS6KA6 (RSK4)", "value": 93, "unit": "%"},
      {"measurement": "inhibition at 1 µM", "setting": "SGK (SGK1)", "value": 29, "unit": "%"},
      {"measurement": "inhibition at 1 µM", "setting": "STK22D (TSSK1)", "value": 19, "unit": "%"},
      {"measurement": "inhibition at 1 µM", "setting": "STK23 (MSSK1)", "value": 4, "unit": "%"},
      {"measurement": "inhibition at 1 µM", "setting": "STK25 (YSK1)", "value": 19, "unit": "%"},
      {"measurement": "inhibition at 1 µM", "setting": "TAOK2 (TAO1)", "value": 3, "unit": "%"},
      {"measurement": "inhibition at 1 µM", "setting": "TYK2", "value": 51, "unit": "%"}
    ]}
  ]
}
